# Measured values from patent publication US5686458A, “Quinazoline deriviates for treating peptic ulcer” (Yuhan Corporation, priority 1992, dated 1997).
# Counter-ions that a name gives are not always drawn.
# How the values were obtained:
# [1] = molecular target: T1, Proton Pump (H^+ /K^+ ATPase) (Oryctolagus cuniculus, UniProt P27112); assay: Inhibition of Proton Pump (H+/K+ ATPase) Activity, in vitro enzyme reaction (Experiment 1); type: biochemical, New Zealand white rabbit; conditions: for Effect ratio: IC50 of Omeprazole / IC50 of test compound; for IC50: K+-stimulated H+/K+ ATPase activity, rabbit gastric microsomes, pH 7.2, 37° C., 15 min prereaction, 30 min reaction, read-out: IC50 of test compound, inhibition (50%) of the proton pump activity
# T1 construct: The microsomes thus obtained were used as an enzyme source of the in vitro enzyme reaction study of proton pump; from tissue; host or cells: rabbit stomach, mucosal scrapings, microsomes (180,000 g pellet)
# Description: A New Zealand white rabbit was killed by blowing its head and the stomach was taken out. The contents of the stomach were removed and the stomach walls were washed with was saline. The inner wall of the stomach was scratched out with a slide glass and the cells thus obtained were homogenized in 0.25M sucrose buffer by means of a Teflon-glass homogenizer. The homogenous solution was centrifuged at 10,000 g for 10 minutes and the supernatant was further centrifuged at 20,000 g for 20 minutes. The supernatant thus obtained was centrifuged at an ultra-high speed of 180,000 g for 1 hour. The pellets precipitated were collected by discarding the supernatant and suspended in 50 mM Tris-HCl buffer having pH 7.2. The suspension was dialyzed twice with the same buffer(of 1,000 times volume) for 3 hours and stored into liquid nitrogen.
# The above centrifugation and dialysis were carried out at 4° C. The microsomes thus obtained were used as an enzyme source of the in vitro enzyme reaction study of proton pump.
# The inhibitory effects of proton pump activity by the compounds of the present invention were measured by the in vitro enzyme reaction study. The proton pump activity stimulated by Mg^++ was used as a negative comparative group, and the activity stimulated by Mg^++ and K^+ was used as a positive comparative group. The comparative compound was omeprazole.
# Test tubes were divided into 4 groups: Group 1 as negative comparative group(n=3), Group 2 as positive comparative group(n=3), Group 3(n=5) to be administered with the compound of the present invention and Group 4(n=5) to be administered with the comparative compound. The inhibitory effects of proton pump activity of Groups 3 and 4 were measured by employing the compound prepared in Example 34 and omeprazole, respectively, each of which was dissolved in dimethylsulfoxide at 5 different concentrations.
# To each of Groups 1, 2, 3 and 4, were added 0.1 ml of magnesium chloride(40 mM) dissolved in 50 mM Tris-HCl buffer (pH 7.2) and […] of the enzyme source prepared in Experiment 1-1. Then, 0.1 ml of potassium chloride(500 mM) and 0.1 ml of ammonium chloride(100 mM) dissolved in 50 mM Tris-HCl buffer(pH 7.2) were added to all groups except for Group 1.
# 0.1 ml of dimethylsulfoxide was added to each of Groups 1 and 2; and to Group 3 was added 0.01 ml of the solution in which the compound prepared in Example 34 was dissolved in dimethylsulfoxide at 5 different concentrations. To Group 4, 0.01 ml of the solution prepared by dissolving omprazole in dimethylsulfoxide at 5 different concentrations(37.6, 21.4, 12.2, 7.0 and 4.0 μM) was added. 50 mM Tris-HCl buffer was added thereto so as to make the total volume 0.4 ml.
# Thereafter, the test tubes of each Group were placed at 37° C. for 15 minutes for the prereaction. 0.1 ml of ATP solution(33.3 mM), which was prepared by adding Tris-ATP 50 mM to Tris-HCl buffer having pH 7.2, was added until the reaction volume became 0.5 ml. The final concentrations of MgCl2, KCl, NH4 Cl, ATP, enzyme and Tris-HCl were 8 mM, 100 mM, 20 mM, 6.7 mM, 100μg/ml and 50 mM, respectively. After the reaction was carried out at 37° C. for 30 minutes, 25% cold trichloroacetic acid was added to terminate the enzyme reaction. The released inorganic phosphate was measured by an automatic analyzer(SBA 300, Gilford).
# The difference between Group 1 and Group 2 represents the proton pump activity activated by K^+ only. The inhibition percentages of Groups 3 and 4 were calculated from Litchfield-wilcoxon equation[see J. Pharmacol. Exptl. Ther. 96, 99(1949)]. The concentrations of the test compounds which inhibit 50% of the proton pump activity are represented as IC50 in Table 1.
# gastric secretion = assay: Inhibition of Gastric Secretion, pylorus-ligated rats (Experiment 2); type: in vivo, Sprague-Dawley rats; conditions: relative to omeprazole (equation III), 20 mg/kg intraduodenally, pylorus-ligated rats, 5 hours
# Description: In accordance with the method disclosed in Shay, H., et al., Gastroenterology 5, 43-61(1945), Experiment 2 was carried out.
# Sprague-Dawley rats having a body weight of 170±10 g were divided into 3 groups(n=5) and deprived of food for 24 hours before the experiment with free access to water. Under ether anesthesia, the abdomen was incised, and the pylorus was ligated. As a comparative group, Group 1 was administered intraduodenally in a volume of 0.5 ml/200 g of 30% aqueous polyethylene glycol 400 solution. Groups 2 and 3 were administered intraduodenally with the compound of Example 34 and omeprazole, respectively, each of which was suspended in 30% aqueous polyethylene glycol 400 solution at a concentration of 20 mg/kg. After closing the abdominal cavity, the rats were placed for 5 hours and then killed by cervical dislocation. The stomach was extracted to obtain gastric juice.
# The gastric juice was centrifuged at 1,000 g to remove precipitates. The amount and acidity of the gastric juice were measured. Relative volumes, relative acid concentrations and relative acid outputs of the test compounds were calculated from equations(I), (II) and (III) and the results are shown in Table 2.
# (I) = the average amount of gastric juice of Group 1 - the
# average amount of gastric juice of Group 2)/(the average
# amount of gastric juice of Group 1 - the average amount
# of gastric juice of Group 3)
# Relative acid concentration
# (II) = (the average acidity of Group 1 - the average
# acidity of Group 2)/(the average acidity of Group 1 - the average
# (III) = (the total amount of acid output of Group 1 - the
# total amount of acid output of Group 2)/(the total amount of acid
# output of Group 1 - the total amount of acid output of Group
# T1 sequence (P27112 whole entry): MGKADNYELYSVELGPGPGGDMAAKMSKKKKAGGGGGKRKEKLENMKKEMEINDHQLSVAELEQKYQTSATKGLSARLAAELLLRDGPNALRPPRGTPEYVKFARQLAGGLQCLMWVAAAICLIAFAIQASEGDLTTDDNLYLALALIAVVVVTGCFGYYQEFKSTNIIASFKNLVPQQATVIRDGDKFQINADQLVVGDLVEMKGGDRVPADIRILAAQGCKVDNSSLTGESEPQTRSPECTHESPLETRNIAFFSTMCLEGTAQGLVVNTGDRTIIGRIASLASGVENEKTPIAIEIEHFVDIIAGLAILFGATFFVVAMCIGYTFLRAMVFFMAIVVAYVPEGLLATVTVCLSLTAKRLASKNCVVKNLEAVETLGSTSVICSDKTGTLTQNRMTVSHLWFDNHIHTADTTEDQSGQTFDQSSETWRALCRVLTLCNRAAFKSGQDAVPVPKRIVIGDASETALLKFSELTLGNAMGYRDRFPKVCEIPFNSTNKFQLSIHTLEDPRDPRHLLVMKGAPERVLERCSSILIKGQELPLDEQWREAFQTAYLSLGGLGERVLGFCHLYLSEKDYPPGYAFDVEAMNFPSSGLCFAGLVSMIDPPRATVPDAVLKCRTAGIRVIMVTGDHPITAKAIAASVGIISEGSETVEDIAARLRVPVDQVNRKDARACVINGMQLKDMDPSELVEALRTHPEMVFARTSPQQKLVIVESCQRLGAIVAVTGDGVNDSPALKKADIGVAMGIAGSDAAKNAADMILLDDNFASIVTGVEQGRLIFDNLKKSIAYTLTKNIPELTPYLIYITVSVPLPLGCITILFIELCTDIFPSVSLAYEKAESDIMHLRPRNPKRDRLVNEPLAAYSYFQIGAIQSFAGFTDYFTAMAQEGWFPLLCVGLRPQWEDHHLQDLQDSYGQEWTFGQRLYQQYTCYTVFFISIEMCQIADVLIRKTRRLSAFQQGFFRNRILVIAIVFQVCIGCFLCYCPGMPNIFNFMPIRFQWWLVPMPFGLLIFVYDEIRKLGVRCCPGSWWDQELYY
# T1 sequence (P18597 whole entry partner): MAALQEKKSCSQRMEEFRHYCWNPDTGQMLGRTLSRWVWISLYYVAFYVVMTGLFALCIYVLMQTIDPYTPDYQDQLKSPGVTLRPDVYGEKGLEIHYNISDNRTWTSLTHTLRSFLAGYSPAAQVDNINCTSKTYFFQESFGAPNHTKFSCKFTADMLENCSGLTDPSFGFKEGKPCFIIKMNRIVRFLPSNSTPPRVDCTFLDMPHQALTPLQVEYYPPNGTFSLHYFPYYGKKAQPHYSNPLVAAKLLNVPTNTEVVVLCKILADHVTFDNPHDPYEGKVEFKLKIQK
SMILES,Effect ratio [1],IC50 [1],Relative Acid Output (gastric secretion)
"COc1cccc2c(N3CCc4cccc5c4C3CC5)nc(Nc3ccc(F)cc3)nc12.Cl (stereo not drawn) [Example 58, 8-Methoxy-2-(4-Fluorophenyl-Amino)-4-(1,8-Ethano-1,2,3,4-Tetrahydroisoquinoline-2-Yl)Quinazoline Hydrochloride]",0.65,13.6 µM,0.94
"COc1cccc2c(N3CC(C)c4ccccc4C3C)nc(Nc3ccc(F)cc3)nc12.Cl (stereo not drawn) [Example 56, 2-(4-Fluorophenylamino)-8-Methoxy-4-(1,4-Dimethyl-1,2,3,4-Tetrahydroisoquinoline-2-Yl)Quinazoline Hydrochloride]",< 0.60,> 12.5 µM,0.85
"COc1cccc2c(N3CCc4cccc(C)c4C3C)nc(Nc3ccc(F)cc3)nc12.Cl (stereo not drawn) [Example 52, 2-(4-Fluorophenylamino)-8-Methoxy-4-(1,8-Dimethyl-1,2,3,4-Tetrahydroisoquinoline-2-Yl)Quinazoline Hydrochloride]",1.26,7.5 µM,0.79
"CC1c2ccccc2CCN1c1nc(N(C)c2ccccc2)nc2ccccc12.Cl (stereo not drawn) [Example 24, 2-(N-Methylphenylamino)-4-(1-Methyl-1,2,3,4-Tetrahydroisoquinoline-2-Yl)Quinazoline Hydrochloride]",~ 1.29,~12.5 µM,0.36
"COc1cccc2c(N3CCc4ccccc4C3)nc(N(C)c3ccccc3)nc12.Cl [Example 29, 8-Methoxy-2-(N-Methylphenyl-Amino)-4-(1,2,3,4-Tetrahydroisoquinoline-2-Yl)Quinazoline Hydrochloride]",1.47,4.9 µM,0.84
"COc1cccc2c(N3CCc4ccccc4C3(C)C)nc(Nc3ccc(F)cc3)nc12.Cl [Example 50, 2-(4-Fluorophenylamino)-8-Methoxy-4-(1,1-Dimethyl-1,2,3,4-Tetrahydroisoquinoline-2-Yl)Quinazoline Hydrochloride]",1.22,6.05 µM,0.82

# Second part, led by results:
Effect ratio [1],IC50 [1],SMILES,Relative Acid Output (gastric secretion)
0.68,~6 µM,"CCC1c2ccccc2CCN1c1nc(Nc2ccc(F)cc2C)nc2c(OC)cccc12.Cl (stereo not drawn) [Example 46, 8-Methoxy-2-(2-Methyl-4-Fluoro-Phenylamino)-4-(1-Ethyl-1,2,3,4-Tetrahydroisoquinoline-2-Yl)Quinazoline Hydrochloride]",0.11
5.20,1.8 µM,"COc1cccc2c(N3CCc4ccccc4C3C)nc(Nc3ccc(F)cc3C)nc12.CS(=O)(=O)O (stereo not drawn) [Example 60, 2-(4-Fluoro-2-MethylPhenyl-Amino)-8-Methoxy-4-(1-Methyl-1,2,3,4-Tetrahydroisoquinoline-2-Yl)Quinazoline Methanesulfonate]",0.84
0.70,4 µM,"CSCOc1cccc2c(N3CCc4ccccc4C3C)nc(Nc3ccc(F)cc3C)nc12 (stereo not drawn) [Example 39, 2-(4-Fluoro-2-Methylphenyl-Amino-8-(Methylthiomethyloxy)-4-(1-Methyl-1,2,3,4-Tetrahydroisoquinoline-2-Yl)Quinazoline Hydrochloride]",0.57
1.04,7.18 µM,"COc1cccc2c(N3CC(C)c4ccccc4C3C)nc(Nc3ccc(F)cc3C)nc12.Cl (stereo not drawn) [Example 57, 2-(4-fluoro-2-Methylphenyl-Amino)-8-Methoxy-4-(1,4-Dimethyl-1,2,3,4-Tetrahydroisoquinoline-2-Yl) Quinazoline Hydrochloride]",0.67
1.77,4.8 µM,"COc1cccc2c(N3CCc4cccc5c4C3CC5)nc(Nc3ccc(F)cc3C)nc12.Cl (stereo not drawn) [Example 59, 8-Methoxy-2-(4-Fluoro-2-Methyl-Phenylamino)-4-(1,8-Ethano-1,2,3,4-Tetrahydroisoquinoline-2-Yl)Quinazoline Hydrochloride]",0.83
